Read-outs that look alike come from different tables or passages of the source.
Columns and labels:
[1] = tested on: T1, EPSPS (5-enolpyruvylshikimate-3-phosphate synthase); experiment: EPSPS activity by phosphate release (EnzChek Phosphate Assay), leaf extract; assay type: biochemical, Steinchisma laxum; conditions: R population (Pro106Ser found in R plants); glyphosate 0-1000 µM; stated gain; read-out: I50
T1 construct: native enzyme extracted from leaf tissue, not purified to homogeneity, activity per total soluble protein

[2] = tested on: T1, EPSPS (5-enolpyruvylshikimate-3-phosphate synthase); experiment: as above; assay type: biochemical, Steinchisma laxum; conditions: S population; glyphosate 0-1000 µM; read-out: I50

Compound: O=C(O)CNCP(=O)(O)O [glyphosate, N-(phosphonomethyl) glycine]
- IC50 [1]: 14.7 µM
- IC50 [2]: 980 nM

From paper PMC10534422, “Divergence in Glyphosate Susceptibility between Steinchisma laxum Populations Involves a Pro106Ser Mutation” (Plants, 2023)
